# Results as given in patent publication US20250345333A1, “THERAPIES WITH PPAR AGONISTS AND FGFR4 INHIBITORS” (TYRA BIOSCIENCES, INC., priority 2022, published 2025).
# Like-named read-outs stand apart in the source and are kept apart here.
# How the values were obtained:
# [1] = system: serum C4 (7-alpha-hydroxy-4-cholestene-3-one); experiment: Serum C4 in athymic nude (Nu/Nu) mice; type: in vivo; details: FGF401 at 30 mg/kg, H3B-6527 at 300 mg/kg
# [2] = system: CYP7A1 expression in Hep3B cells; experiment: CYP7A1 mRNA expression (qPCR, relative to Actin) in Hep3B cells
# Description: (§1) Fenofibrate or fenofibric acid was applied at a concentration of 2, 5, and 10 μM added simultaneously in combination with 30 nM of BLU-554 in growth media (DMEM supplemented with 10% Fetal Bovine Serum), for 18 hours. mRNA was then isolated and CYP7A1 expression was measured using TaqMan™ qPCR Assays (CYP7A1 assay ID: Hs00167982_m1, ACTNB assay ID: Hs99999903_m1).
# (§2) Hep3B and HUH-7 cells were treated with 10 μg/ml mouse Isotype monoclonal IgG control (R&D-MAB002), or 2 μg/ml, 5 μg/ml, and 10 μg/ml of hFGF19 Antibody (R&D-AF969) for 24 hours. mRNA was then isolated and CYP7A1 expression was measured using qPCR. The depicted data represent the fold change in CYP7A1 mRNA levels compared to vehicle (DMSO) treated cells, and Actin was used as internal control.
# (§3) Hep3B and HUH-7 cells were treated with 10 μg/ml of hFGF19 Antibody (R&D-AF969) in combination with 2 μM, 5 μM, or 10 μM of fenofibrate, for 24 hours. Two control groups included; untreated cells, and cell treated with 10 μg/ml mouse Isotype monoclonal IgG (R&D-MAB002), for 24 hours.
# [3] = system: CYP7A1 expression in HuH-7 cells; experiment: CYP7A1 mRNA expression (qPCR, relative to Actin) in HuH-7 cells
# Description: as §1, §2, §3
# [4] = system: Cyp7a1 mRNA expression in mouse livers; experiment: Liver Cyp7a1 mRNA expression in mice
# Description: For the in vivo experiments, male C57BL/6 mice were dosed orally with vehicle, fenofibrate, an FGFR4 inhibitor, or with a combination of fenofibrate and an FGFR4 inhibitor at the doses indicated. Before the final day of the study, animals were fasted overnight and serum was collected 4 hours after the final dose. Serum C4 (7-alpha-hydroxy- 4-cholestene-3-one) analyses were carried out on an Agilent 6495 triple quadrupole mass spectrometer with jet stream source coupled to an Agilent 1290 UPLC stack. Data was processed using Waters TargetLynx data processing software. Calibration curves were generated using reference standard (7A4C; Sigma-Aldrich). Calibration range was from 0.5ng/ml-200 ng/ml with an internal deuterated standard (7A4C-D7; Avanti Polar Lipids) concentration of 100 ng/ml. The vehicle for fenofibrate, FGF401 and H3B-6527 was 0.5% methylcellulose/0.5% tween 80 (MC/Tween), and the vehicle for BLU554 was 80% PEG400/4% hydroxypropyl-β-cyclodextrin (HPBCD). When combination treatments were tested, the vehicle treatment groups received both vehicles, formulated separately. In the combination treatment groups, the compounds were formulated and dosed separately.
# [5] = system: serum C4 (7-alpha-hydroxy-4-cholestene-3-one); experiment: Serum C4 in C57BL/6 mice dosed orally
# Description: For the in vivo experiments, male C57BL/6 mice were dosed orally with vehicle, fenofibrate, an FGFR4 inhibitor, or with a combination of fenofibrate and an FGFR4 inhibitor at the doses indicated. Before the final day of the study, animals were fasted overnight and serum was collected 4 hours after the final dose. Serum C4 (7-alpha-hydroxy- 4-cholestene-3-one) analyses were carried out on an Agilent 6495 triple quadrupole mass spectrometer with jet stream source coupled to an Agilent 1290 UPLC stack. Data was processed using Waters TargetLynx data processing software. Calibration curves were generated using reference standard (7A4C; Sigma-Aldrich). Calibration range was from 0.5ng/ml-200 ng/ml with an internal deuterated standard (7A4C-D7; Avanti Polar Lipids) concentration of 100 ng/ml. […] When combination treatments were tested, the vehicle treatment groups received both vehicles, formulated separately. In the combination treatment groups, the compounds were formulated and dosed separately. The mean C4 value for each group of 4 mice is shown, and error bars represent standard error of the mean.
# [6] = system: serum C4 (7-alpha-hydroxy-4-cholestene-3-one); experiment: Serum C4 in athymic nude mice carrying HuH-7 tumors; type: in vivo; details: 14 days; for serum C4 levels: HuH-7 tumor-bearing mice, inhibitor alone: BLU554 100 mg/kg BID, FGF401 30 or 100 mg/kg BID
# [7] = system: bile acid (BA) levels; experiment: Bile acid levels in liver, plasma and gallbladder of athymic nude mice; details: oral, BID, 3 weeks; H3B-6527 300 mg/kg, FGF401 30 mg/kg; 4 hours after final dose; vs vehicle
# Description: FIGS. 14A-14C are bar graphs depicting changes in bile acid (BA) levels (fold change over control) in liver (FIG. 14A), plasma (FIG. 14B), and gallbladder (FIG. 14C) of athymic nude (Nu/Nu) mice treated orally with vehicle ((1) 0.5% MC/tween), H3B-6527 ((2) 300 mg/kg, BID), or FGF401/Roblitinib ((3) 30 mg/kg, BID), for 3 weeks. Four hours after the final dose, mice were euthanized and plasma, liver and gallbladder samples were collected, and bile acid levels measured.
# FIGS. 14A-14C are bar graphs depicting changes of bile acid (BA) levels (fold change over control) in liver (FIG. 14A), plasma (FIG. 14B), and gallbladder (FIG. 14C) of athymic nude (Nu/Nu) mice treated orally with vehicle (0.5% MC/tween), H3B-6527 (300 mg/kg, BID), or FGF401/Roblitinib (30 mg/kg, BID), for 3 weeks. Four hours after the final dose, mice were euthanized and plasma, liver and gallbladder samples were collected and bile acid levels measured. Bile acids were measured at the metabolomics core facility of University of Kansas Medical Center, following an established protocol.
smiles,measurement,setting,value
C=CC(=O)Nc1cc(N2CCN(CC)CC2)ccc1Nc1cc(N(C)C(=O)Nc2c(Cl)c(OC)cc(OC)c2Cl)ncn1 [H3B-6527],levels of serum C4,[1],increases in levels of serum C4
C=CC(=O)N1CC[C@H](n2nc(C#Cc3cc(OC)cc(OC)c3)c3c(N)ncnc32)C1 [futibatinib],CYP7A1 expression (Relative mRNA expression/Actin),"[2]; Hep3B cells, increasing concentrations of inhibitor alone, 18 hours",increased CYP7A1 expression
same,CYP7A1 expression (Relative mRNA expression/Actin),"[3]; HuH-7 cells, increasing concentrations of inhibitor alone, 18 hours",increased CYP7A1 expression
"C=CC(=O)N[C@H]1CCOC[C@H]1Nc1ncc2cc(-c3c(Cl)c(OC)cc(OC)c3Cl)ccc2n1 [BLU-554, fisogatinib]",liver Cyp7a1 mRNA expression (% Actb),[4]; BLU-554 (100 mg/kg) alone,Cyp7a1 upregulation
same,CYP7A1 expression (Relative mRNA expression/Actin),[2],increased CYP7A1 expression
same,levels of serum C4,"[5]; C57BL/6 mice, BLU554 at 100 mg/kg",increases in levels of serum C4
same,CYP7A1 expression (Relative mRNA expression/Actin),[3],increased CYP7A1 expression
same,serum C4 levels,[6],significantly raised levels
COc1cc(OC)cc(N(CCNC(C)C)c2ccc3ncc(-c4cnn(C)c4)nc3c2)c1 [erdafitinib],CYP7A1 expression (Relative mRNA expression/Actin),[2],increased CYP7A1 expression
same,CYP7A1 expression (Relative mRNA expression/Actin),[3],increased CYP7A1 expression
CC(C)OC(=O)C(C)(C)Oc1ccc(C(=O)c2ccc(Cl)cc2)cc1 [fenofibrate],liver Cyp7a1 mRNA expression (% Actb),[4]; fenofibrate co-administered with BLU-554 (100 mg/kg),"reversed BLU-554-induced Cyp7a1 upregulation in mouse livers, in a dose dependent manner"
same,serum C4 levels,"[5]; different doses of fenofibrate in combination with BLU-554 (100 mg/Kg), 6 days",reduced the increase in C4 caused by BLU554
same,rise in serum C4,[6]; fenofibrate 40 mg/kg QD plus BLU554 100 mg/kg BID,significantly attenuated the rise in C4
same,rise in serum C4,[6]; fenofibrate 40 mg/kg QD plus FGF401 30 mg/kg BID,attenuated the rise in C4
"COCCNc1cc(NC(=O)N2CCCc3cc(CN4CCN(C)CC4=O)c(C=O)nc32)ncc1C#N [FGF-401, roblitinib]",CYP7A1 expression (Relative mRNA expression/Actin),[2],increased CYP7A1 expression
same,CYP7A1 expression (Relative mRNA expression/Actin),[3],increased CYP7A1 expression
same,levels of serum C4,[1],increases in levels of serum C4
same,serum C4 levels,[6],significantly raised levels
same,bile acids level in gall bladder (fold change over control),[7],increased bile acids level
same,bile acids level in liver (fold change over control),[7],increased bile acids level
same,bile acids level in plasma (fold change over control),[7],increased bile acids level
